Assay results: PMC7297817, “Pharmacological Characterization of a Betaine/GABA Transporter 1 (BGT1) Inhibitor Displaying an Unusual Biphasic Inhibition Profile and Anti-seizure Effects” (Neurochemical Research, 2020)
Read-outs that look alike come from different tables or passages of the source.

What was measured:
Alpha2A = target: T1, Alpha2A (Homo sapiens, UniProt P08913); assay: NIMH PDSP radioligand binding, Alpha2A; details: radioligand [3H]rauwolscine, n=4
T1 construct: purchased NIMH Psychoactive Drug Screening Program (PDSP)
T1 sequence (P08913 whole entry): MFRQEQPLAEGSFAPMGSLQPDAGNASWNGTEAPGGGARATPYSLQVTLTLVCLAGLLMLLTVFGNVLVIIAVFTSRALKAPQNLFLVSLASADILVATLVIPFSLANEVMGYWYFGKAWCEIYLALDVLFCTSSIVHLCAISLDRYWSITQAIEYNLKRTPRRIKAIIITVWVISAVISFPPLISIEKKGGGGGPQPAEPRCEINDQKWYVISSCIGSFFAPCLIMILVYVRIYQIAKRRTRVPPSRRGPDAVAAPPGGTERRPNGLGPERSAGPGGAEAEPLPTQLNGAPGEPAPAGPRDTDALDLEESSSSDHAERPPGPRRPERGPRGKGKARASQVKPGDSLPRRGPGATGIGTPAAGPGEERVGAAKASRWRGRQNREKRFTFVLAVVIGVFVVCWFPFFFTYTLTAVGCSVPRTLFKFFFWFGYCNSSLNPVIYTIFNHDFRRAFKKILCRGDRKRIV

hBGT1 = target: T2, hBGT1 (Homo sapiens, UniProt P48065); assay: [3H]GABA uptake at hBGT1 transiently expressed in tsA201 cells; type: cell-based
T2 construct: expressed in transfected cells; host or cells: tsA201 (transient)
T2 sequence (P48065 1-614): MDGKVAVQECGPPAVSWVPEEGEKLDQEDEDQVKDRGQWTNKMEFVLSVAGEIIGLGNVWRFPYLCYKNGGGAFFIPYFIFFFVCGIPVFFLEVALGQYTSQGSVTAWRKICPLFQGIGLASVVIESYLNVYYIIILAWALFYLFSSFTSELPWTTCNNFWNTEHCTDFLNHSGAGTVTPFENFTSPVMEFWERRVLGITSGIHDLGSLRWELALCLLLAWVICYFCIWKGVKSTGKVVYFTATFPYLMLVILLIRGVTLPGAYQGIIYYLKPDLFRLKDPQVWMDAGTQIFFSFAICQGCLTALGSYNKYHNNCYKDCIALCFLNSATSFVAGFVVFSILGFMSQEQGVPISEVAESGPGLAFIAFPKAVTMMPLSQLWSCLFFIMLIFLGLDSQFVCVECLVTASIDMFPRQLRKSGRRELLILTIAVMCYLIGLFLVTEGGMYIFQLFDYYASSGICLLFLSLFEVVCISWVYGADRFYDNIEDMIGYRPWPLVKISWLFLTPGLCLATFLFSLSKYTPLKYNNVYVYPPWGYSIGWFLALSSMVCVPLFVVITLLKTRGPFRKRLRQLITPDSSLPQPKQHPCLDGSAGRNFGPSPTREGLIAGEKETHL
Description: The tsA201 cell line was used for transient expression while the MDCK II cell line express BGT1 endogenously. Both cell lines were cultured as described. tsA201 cells were transfected with DNA constructs (8 μg per 10 cm dish if not otherwise mentioned) using 40 μL PolyFect transfection reagent according to the manufacturer’s protocol (Qiagen, Venlo, Netherlands). The DNA constructs encoding hBGT1, hGAT1-3 [36], the mutated constructs hBGT1 Q299 and hGAT3 L314Q described previously, and hBGT Y453A were synthesized and sequence validated by Genscript (NJ, USA).
The [^3H]GABA competition uptake assay was performed as previously described. […] Studies related to the inhibition curves with GABA and BPDBA at hBGT1 were obtained both with and without the presence of 10 μM ATP during the [^3H]GABA uptake assay.
All compounds, except BAPTA/AM, were also present at the same concentration during the course of the actual [^3H]GABA uptake assay.
The [^3H]GABA uptake data was normalized to the percentage of total uptake in the individual experiments in the presence of the lowest compound concentration or no compound present. Data presented is the pooled data of at least three independent experiments with three technical replicates. Concentration–response curves (CRCs) were fitted with GraphPad Prism (version 8.2.1, Yosemite, GraphPad Software, San Diego, CA, USA) by non-linear regression to the sigmoidal concentration response model: Y=Bottom+(Top-Bottom)/1+10^LogIC50-X∗nH where Top is the Top plateau, Bottom is the Bottom plateau, X is the logarithm of the concentration of the compound, LogIC50 is the concentration giving a response halfway between Top and Bottom,and nH is the Hill slope.
The best fit for CRCs obtained with the [^3H]GABA uptake assay was identified by the extra-sum-of-squares F test (for convenience referred to as F test).

SERT = target: T3, SERT (Homo sapiens, UniProt P31645); assay: NIMH PDSP radioligand binding, SERT; details: radioligand [3H]citalopram, n=4
T3 construct: purchased NIMH Psychoactive Drug Screening Program (PDSP)
T3 sequence (P31645 whole entry): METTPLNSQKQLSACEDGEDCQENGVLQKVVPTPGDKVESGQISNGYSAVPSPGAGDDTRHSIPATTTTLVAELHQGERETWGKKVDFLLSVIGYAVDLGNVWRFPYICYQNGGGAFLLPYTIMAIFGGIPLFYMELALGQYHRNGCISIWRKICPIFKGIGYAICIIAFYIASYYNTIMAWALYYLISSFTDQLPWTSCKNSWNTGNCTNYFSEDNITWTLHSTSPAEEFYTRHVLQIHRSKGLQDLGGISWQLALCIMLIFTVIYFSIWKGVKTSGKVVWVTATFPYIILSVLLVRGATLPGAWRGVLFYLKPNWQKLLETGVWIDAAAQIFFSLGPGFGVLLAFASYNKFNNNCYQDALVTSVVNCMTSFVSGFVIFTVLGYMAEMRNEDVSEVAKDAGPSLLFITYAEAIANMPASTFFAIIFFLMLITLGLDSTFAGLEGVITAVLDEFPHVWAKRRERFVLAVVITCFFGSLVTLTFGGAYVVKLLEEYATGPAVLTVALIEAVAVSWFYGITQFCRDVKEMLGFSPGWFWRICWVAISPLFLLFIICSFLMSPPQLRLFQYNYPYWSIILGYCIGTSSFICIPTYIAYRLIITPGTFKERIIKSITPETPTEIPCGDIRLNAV

CF-1 mice = assay: s.c.PTZ seizure threshold test; type: in vivo, mouse; details: 150 mg/kg i.p.
Source text: Male audiogenic-susceptible (AGS) Frings mice were obtained from an in-house breeding facility at the University of Utah (Salt Lake City, UT, USA). Male CF-1 mice for the maximal electroshock (MES) test and the subcutaneous pentylenetetrazol (s.c.PTZ) seizure threshold test were purchased from Charles River (Kingston, WA, USA). All mice were housed in a temperature, humidity, and light (on at 6:00 AM) controlled facility at the University of Utah with access to ad libitum food and water except during testing. All procedures were carried out at the University of Utah in concordance with the National Institutes of Health Guidelines for the Care and Use of Laboratory Animals and under approval from the University of Utah’s Institutional Animal Care and Use Committee. The mice were euthanized in accordance with Public Health Service policies on the humane care of laboratory animals. SBV2-114 was tested for its ability to prevent a minimal clonic seizure in the s.c.PTZ seizure test, which is a test of generalized myoclonic seizures. […] At the TPE, mice were challenged with a s.c. dose of PTZ (85 mg/kg) and observed for 30 min for the presence or absence of a minimal clonic seizure characterized by minimal forelimb clonus and/or vibrissae twitching. Mice not displaying this phenotypic behaviour were considered protected.

H1 = target: T4, H1 (Homo sapiens, UniProt P35367); assay: NIMH PDSP radioligand binding, H1; details: radioligand [3H]pyrilamine, n=4
T4 construct: purchased NIMH Psychoactive Drug Screening Program (PDSP)
T4 sequence (P35367 whole entry): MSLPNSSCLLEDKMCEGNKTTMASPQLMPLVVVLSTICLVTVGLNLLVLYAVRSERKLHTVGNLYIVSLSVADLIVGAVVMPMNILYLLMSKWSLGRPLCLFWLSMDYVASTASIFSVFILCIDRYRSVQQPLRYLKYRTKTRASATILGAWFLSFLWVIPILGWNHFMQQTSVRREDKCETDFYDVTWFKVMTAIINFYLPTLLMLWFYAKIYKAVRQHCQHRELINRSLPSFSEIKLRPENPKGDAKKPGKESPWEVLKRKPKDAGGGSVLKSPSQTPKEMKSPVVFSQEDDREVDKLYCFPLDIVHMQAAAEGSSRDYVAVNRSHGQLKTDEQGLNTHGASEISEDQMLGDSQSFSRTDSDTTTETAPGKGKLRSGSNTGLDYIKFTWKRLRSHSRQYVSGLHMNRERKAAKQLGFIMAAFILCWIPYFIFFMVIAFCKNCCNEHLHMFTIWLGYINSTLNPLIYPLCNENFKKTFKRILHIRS

[1] = Rotarod test of minimal motor impairment; type: in vivo, mouse; details: mouse, in vivo, ip; CF-1 mice of the MES test; probit analysis
Description: The rotarod test was performed just prior to the three seizure tests.
Probit analysis was used to analyse the efficacy and tolerability results obtained from the dose–response studies and to calculate the median effective (ED50) dose, the median toxic dose (TD50), and the 95% confidence interval.

MOR = target: T5, MOR (Homo sapiens, UniProt P35372); assay: NIMH PDSP radioligand binding, MOR; details: radioligand [3H]DAMGO, n=4
T5 construct: purchased NIMH Psychoactive Drug Screening Program (PDSP)
T5 sequence (P35372 whole entry): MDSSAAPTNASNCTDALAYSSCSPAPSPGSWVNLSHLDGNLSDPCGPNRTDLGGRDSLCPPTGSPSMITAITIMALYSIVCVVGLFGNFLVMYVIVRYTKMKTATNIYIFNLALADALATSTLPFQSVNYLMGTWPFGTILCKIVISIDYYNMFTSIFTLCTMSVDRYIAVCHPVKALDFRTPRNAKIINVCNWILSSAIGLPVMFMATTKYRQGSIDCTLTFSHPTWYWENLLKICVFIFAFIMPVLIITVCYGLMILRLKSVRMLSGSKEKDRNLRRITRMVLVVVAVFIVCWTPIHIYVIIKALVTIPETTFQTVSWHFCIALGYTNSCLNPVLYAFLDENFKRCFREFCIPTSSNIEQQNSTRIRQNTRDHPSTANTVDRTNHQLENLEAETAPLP

[2] = 30 min pre-incubation with 25 μM BAPTA/AM
[3] = control: 30 min pre-incubation in assay buffer

With `Cc1ccsc1C(=CCCN(C)[C@H]1CCCC[C@H]1C(=O)O)c1sccc1C` [SBV2-114, (1R,2S)-2-((4,4-bis(3-methylthiophen-2-yl)but-3-en-yl)(methyl)amino)cyclohexanecarboxylic acid] the inhibition at 10 µM (Alpha2A) was 42.8%, the “inhibition profile (mono-/biphasic)” value (hBGT1; 30 nM [3H]GABA, 3 min, F test) was “biphasic” and the Frac (hBGT1; 2 μg cDNA (n=2)) was 0.44. For the same molecule, the nH1 (hBGT1; 2 μg cDNA (n=2)) was -0.86, the nH2 (hBGT1; 2 μg cDNA (n=2)) was -1.75 and the Frac (hBGT1; 4 μg cDNA (n=2)) was 0.32. It also gave a nH1 (hBGT1; 4 μg cDNA (n=2)) of -1.31, a nH2 (hBGT1; 4 μg cDNA (n=2)) of 1.62 and a Frac (hBGT1; [2]) of 0.15. For the same molecule, the nH1 (hBGT1; [2]) was -2.02, the preferred curve fitting (hBGT1; 30 min pre-incubation with and presence of 1 μM A 804598) was “biphasic fit” and the preferred curve fitting (hBGT1; 30 min pre-incubation with and presence of 5 μM U-73122) was “biphasic fit”. The IC50 (hBGT1; IC50, high affinity component (low IC50), biphasic fit, 30 nM [3H]GABA, 3 min, tsA201, 8 μg cDNA) was 4.7 µM, the IC50 (hBGT1; IC50, high affinity component, 30 min pre-incubation with 25 μM BAPTA/AM) was 5.2 µM and the IC50 (hBGT1; IC50, high affinity component, control: 30 min pre-incubation at 37 °C in assay buffer) was 6.1 µM. For the same molecule, the “% inhibition (Frac value) at the low IC50” value (hBGT1; biphasic fit) was 42%, the Frac (hBGT1; cells pre-incubated for 10 min with SBV2-114 prior to uptake) was 0.34 and the Frac (hBGT1; [3]) was 0.21. For the same molecule, the nH1 (hBGT1; [3]) was -0.76, the nH2 (hBGT1; [3]) was -2.05 and the IC50 (hBGT1; pIC50 ± S.E.M., high affinity component, 2 μg cDNA (n=2), biphasic fit) was 3.39 µM. The IC50 (hBGT1; pIC50 ± S.E.M., high affinity component, 4 μg cDNA (n=2), biphasic fit) was 2.19 µM, the IC50 (hBGT1; pIC50 ± S.E.M., high affinity component, biphasic fit, 30 nM [3H]GABA, 3 min, tsA201, 8 μg cDNA) was 5.25 µM and the Frac (hBGT1; proportion of maximal response due to the more potent phase, 8 μg cDNA) was 0.42. It also gave an IC50 (hBGT1; read-out: IC50, low affinity component (high IC50), biphasic fit, 30 nM [3H]GABA, 3 min, tsA201, 8 μg cDNA) of 556 µM, an IC50 (hBGT1; read-out: IC50, low affinity component, 2 μg cDNA (n=2), biphasic fit) of 518 µM and an IC50 (hBGT1; read-out: IC50, low affinity component, 4 μg cDNA (n=2), biphasic fit) of 514 µM. For the same molecule, the IC50 (hBGT1; read-out: IC50, low affinity component, 30 min pre-incubation with 25 μM BAPTA/AM) was 513 µM, the IC50 (hBGT1; read-out: IC50, low affinity component, control: 30 min pre-incubation at 37 °C in assay buffer) was 507 µM and the inhibition at 10 µM (SERT) was 18.8%. The “effect on s.c.PTZ-induced seizures” value (CF-1 mice) was “did not block s.c.PTZ-induced seizures”, the “#Protected/#Tested” value (CF-1 mice; 30 min, PTZ 85 mg/kg s.c.) was 0/8 and the inhibition at 10 µM (H1) was 51.2%. It also gave a TD50 at 15 min [1] of 163 mg/kg and an inhibition at 10 µM (MOR) of 42%.
